Laboratory results from patent US20030104393A1, “Blood assessment of injury” (priority 2000, published 2003).

What was measured:
brain = assay: Genes induced in the brain following kainic acid-induced seizures (microarray); format: in vivo, rat; set-up: key: NC = No Change
Procedure: (§1) Status epilepticus is produced by intraperitoneally injecting a glutamate analogue/excitotoxin, kainic acid (10 mg/kg i.p.). Animals with kainate-induced seizures are observed following drug administration to ensure that they continue to have complex seizures over a 30 minute period.
All animals are allowed to survive for 24 hours following each treatment. At that time they are deeply anesthetized with ketamine (100 mg/kg) and xylazine (20 mg/kg) given intraperitoneally. Once anesthetized, the chest is opened and a direct cardiac puncture performed with a syringe and 10 cc of blood is aspirated. Immediately following removal of the blood, the animal is decapitated while deeply anesthetized and the brain removed.
One day after hypoxia, status epilepticus, hypoglycemia, ischemic stroke, and hemorrhagic stroke are produced in adult rats, RNA or protein is isolated from the blood cells and from the brains of the animals described in Example 1. The pattern of genes or proteins expressed in the blood cells following each of these types of injury—hypoxia, status epilepticus, hypoglycemia, ischemic stroke, and hemorrhagic stroke is captured on a commercially available microarray (Affymetrix chip). The pattern of gene or protein expression is defined using an expression method, which then forms a genomic or proteomic organ injury database, which is used in assessing injury.
Note that the genes induced in the blood are different from the genes induced in the brain. Therefore, different organs express different genes. In addition, the genes induced by hypoxia in the blood are different from the genes induced by hypoxia in the brain. That is, the same stimulus induces different genes in different organs. Lastly, even though similar genes are induced in the brain by ischemia (stroke) and kainic acid-induced seizures, there are many differences in the gene expression between the two. Therefore, the pattern of gene expression in the brains of ischemic animals is distinctive from the pattern of expression of the kainate animals, and this pattern can be used to diagnose the different conditions of stroke and status epilepticus, even though many of the same genes are induced in the two conditions.
In further support, the following Tables 5 and 6 list those genes induced in the brain following stroke, kainic induced seizures, and hypoxia as compared with untouched controls and sham-operated controls.

neurons = assay: Status epilepticus produced by kainic acid: neuronal injury; format: in vivo, rat; conditions: kainic acid 10 mg/kg i.p., 24 hours later
Procedure: as §1

Structure (SMILES): C=C(C)[C@H]1CN[C@H](C(=O)O)[C@H]1CC(=O)O [kainate, kainic acid]
- Kainic Acid Seizure (fold change) (brain; brain, D29769_at bone morphogenic protein-7): NC
- Kainic Acid Seizure (fold change) (brain; brain, J03624_at Rat galanin (a neuropeptide) RNA): 3 fold change
- Kainic Acid Seizure (fold change) (brain; brain, L20913_s_at vascular endothelial growth factor form 3 RNA): NC
- Kainic Acid Seizure (fold change) (brain; brain, L32591RNA_g GADD45 RNA): 3 fold change
- Kainic Acid Seizure (fold change) (brain; brain, L46593cds_at small proline-rich protein (spr) gene): 4 fold change
- Kainic Acid Seizure (fold change) (brain; brain, M55534RNA_s Rat alpha-crystallin b chain RNA): 2 fold change
- Kainic Acid Seizure (fold change) (brain; brain, M60616_at Rat collagenase (UMRCase) RNA): NC
- Kainic Acid Seizure (fold change) (brain; brain, M63282_at Rat leucine zipper protein RNA): NC
- Kainic Acid Seizure (fold change) (brain; brain, M90661_at Rattus norvegicus insulin receptor-related receptor-alpha subunit RNA): NC
- Kainic Acid Seizure (fold change) (brain; brain, RC_AA891041 EST): NC
- Kainic Acid Seizure (fold change) (brain; brain, U13396_at protein-tyrosine kinase (JAK2) RNA): NC
- Kainic Acid Seizure (fold change) (brain; brain, U16674_at interleukin-12p40 RNA): NC
- Kainic Acid Seizure (fold change) (brain; brain, U49930_g_at ICE-like cysteine protease (Lice) RNA): 2.7 fold change
- Kainic Acid Seizure (fold change) (brain; brain, U77829RNA_s Rattus norvegicus gas-5 growth arrest homolog NCn-translated RNA sequence): 3.4 fold change
- Kainic Acid Seizure (fold change) (brain; brain, U88572_at AMPA receptor interacting protein GRIP RNA): 3.5 fold change
- Kainic Acid Seizure (fold change) (brain; brain, U099870_at Vmajor vault protein RNA): 2.5 fold change
- Kainic Acid Seizure (fold change) (brain; brain, Y10619cds_at transcriptional regulator, Relax): 3.5 fold change
- Kainic Acid Seizure (fold change) (brain; brain, a30543cds_s_ p-Meta-a RNA for CD44 surface protein from patent WO9117248): 4.4 fold change
- Kainic Acid Seizure (fold change) (brain; brain, ab005900_at endothelial receptor for oxidized low density): NC
- Kainic Acid Seizure (fold change) (brain; brain, af00898_at p58/p45 RNA, alternatively spliced form clone H): 3.3 fold change
- Kainic Acid Seizure (fold change) (brain; brain, af28784cds# glial fibrillary acidic proteins alpha and delta (GFAP) gene): 6.2 fold change
- Kainic Acid Seizure (fold change) (brain; brain, af030089UTR# Rattus norvegicus activity and neurotransmitter-induced early gene): 4 fold change
- Kainic Acid Seizure (fold change) (brain; brain, af036537_at homocysteine respondent protein): NC
- Kainic Acid Seizure (fold change) (brain; brain, af036537 homocysteine respondent protein HCYP2 RNA): NC
- Kainic Acid Seizure (fold change) (brain; brain, af053362_at Rattus norvegicus death effector domain-containing protein DEFT RNA): NC
- Kainic Acid Seizure (fold change) (brain; brain, af074608RNA MHC class I antigen (RT1.EC2) gene): 3 fold change
- Kainic Acid Seizure (fold change) (brain; brain, af083269_at p41-Arc RNA): 3.3 fold change
- Kainic Acid Seizure (fold change) (brain; brain, af083269_g_at p41-Arc RNA): 3.3 fold change
- Kainic Acid Seizure (fold change) (brain; brain, af086624_s_a serine threonine kinase (pim-3) RNA): NC
- Kainic Acid Seizure (fold change) (brain; brain, af087944RNA monocyte differentiation antigen CD14 gene): 2.6 fold change
- Kainic Acid Seizure (fold change) (brain; brain, af092090_at cp151 RNA): 2.7 fold change
- Kainic Acid Seizure (fold change) (brain; brain, aj222813_s_a precursor interleukin 18 (IL-18)): 3.8 fold change
- Kainic Acid Seizure (fold change) (brain; brain, d00913_g_at intercellular adhesion molecule-1): NC
- Kainic Acid Seizure (fold change) (brain; brain, d8557s_at RYB-a): 3.5 fold change
- Kainic Acid Seizure (fold change) (brain; brain, d17370_g_at cystathionine gamma-lyase): 3.8 fold change
- Kainic Acid Seizure (fold change) (brain; brain, d89069_f_at inducible carbonyl reductase): NC
- Kainic Acid Seizure (fold change) (brain; brain, d90404_at cathepsin C): 2.8 fold change
- Kainic Acid Seizure (fold change) (brain; brain, d90404_g_at cathepsin C): NC
- Kainic Acid Seizure (fold change) (brain; brain, j00780_at rat preprorelaxin RNA): NC
- Kainic Acid Seizure (fold change) (brain; brain, j04563_at Rat cAMP phosphodiesterase RNA): 5.4 fold change
- Kainic Acid Seizure (fold change) (brain; brain; j04792_at ornithine decarboxylase ODC) gene): 1.7 fold change
- Kainic Acid Seizure (fold change) (brain; brain, m13979_at Rat brain and all other organ glucose-transporter protein RNA): 2.1 fold change
- Kainic Acid Seizure (fold change) (brain; brain, m18330_at Rat protein kinase C delta subspecies): 3.3 fold change
- Kainic Acid Seizure (fold change) (brain; brain, m19257_at Rat cysosolic retinol-binding protein (CRBP) RNA): 4 fold change
- Kainic Acid Seizure (fold change) (brain; brain, m32062_at Rat Fc-gamma receptor RNA): 1.5 fold change
- Kainic Acid Seizure (fold change) (brain; brain, m34253_g_at Rat-interferon regulatory factor1 (IRF-a) RNA): 3 fold change
- Kainic Acid Seizure (fold change) (brain; brain, m60753_s_at catechol-O-methyltransferase RNA): 4.5 fold change
- Kainic Acid Seizure (fold change) (brain; brain, m63122_at Rat tumor necrosis factor receptor (TNF receptor)): 2.8 fold change
- Kainic Acid Seizure (fold change) (brain; brain, m80633_at Rat adenylyl cyclase type (IV) RNA): 5.2 fold change
- Kainic Acid Seizure (fold change) (brain; brain, rc_A1014163 EST): 2.3 fold change
- Kainic Acid Seizure (fold change) (brain; brain, rc_aa799323— EST): NC
- Kainic Acid Seizure (fold change) (brain; brain, rc_aa799448 EST): NC
- Kainic Acid Seizure (fold change) (brain; brain, rc_aa799686 EST): 6.3 fold change
- Kainic Acid Seizure (fold change) (brain; brain, rc_aa799773 EST): 4.7 fold change
- Kainic Acid Seizure (fold change) (brain; brain, rc_aa800701 EST): NC
- Kainic Acid Seizure (fold change) (brain; brain, rc_aa800962 EST): NC
- Kainic Acid Seizure (fold change) (brain; brain, rc_aa866443 EST): NC
- Kainic Acid Seizure (fold change) (brain; brain, rc_aa875032 EST): NC
- Kainic Acid Seizure (fold change) (brain; brain, rc_aa875126 EST): 8.7 fold change
- Kainic Acid Seizure (fold change) (brain; brain, rc_aa891576 EST): NC
- Kainic Acid Seizure (fold change) (brain; brain, rc_aa892750 EST): NC
- Kainic Acid Seizure (fold change) (brain; brain, rc_aa892775 EST): 2.3 fold change
- Kainic Acid Seizure (fold change) (brain; brain, rc_aa892851 EST): NC
- Kainic Acid Seizure (fold change) (brain; brain, rc_aa900476 EST): NC
- Kainic Acid Seizure (fold change) (brain; brain, rc_aa926129_ EST): 4.9 fold change
- Kainic Acid Seizure (fold change) (brain; brain, rc_aa945737 EST): NC
- Kainic Acid Seizure (fold change) (brain; brain, rc_aa946044 EST): 2.8 fold change
- Kainic Acid Seizure (fold change) (brain; brain, rc_ai6i39302 EST): NC
- Kainic Acid Seizure (fold change) (brain; brain, rc_ai070295 EST): 1.9 fold change
- Kainic Acid Seizure (fold change) (brain; brain, rc_ai71962 EST): 1.9 fold change
- Kainic Acid Seizure (fold change) (brain; brain, rc_ai169756 EST): 1.7 fold change
- Kainic Acid Seizure (fold change) (brain; brain, rc_ai171966 EST): 3.8 fold change
- Kainic Acid Seizure (fold change) (brain; brain, rc_ai176456 EST): 2.3 fold change
- Kainic Acid Seizure (fold change) (brain; brain, rc_ai233219 EST): NC
- Kainic Acid Seizure (fold change) (brain; brain, rc_ai638945 EST): NC
- Kainic Acid Seizure (fold change) (brain; brain, rc_ai639042): NC
- Kainic Acid Seizure (fold change) (brain; brain, rc_ai639161 EST): 7.5 fold change
- Kainic Acid Seizure (fold change) (brain; brain, rc_ai639233 EST): NC
- Kainic Acid Seizure (fold change) (brain; brain, rc_ai639372_ EST): NC
- Kainic Acid Seizure (fold change) (brain; brain, rc_ai639402 EST): NC
- Kainic Acid Seizure (fold change) (brain; brain, rc_ai639457 EST): NC
- Kainic Acid Seizure (fold change) (brain; brain, s77494_s_at lysyl oxidase {3Nuntranslated region} [rats, aorta smooth muscle cell): NC
- Kainic Acid Seizure (fold change) (brain; brain, s82649_s_at Narp = neuronal activity-regulated pentraxin): 2.2 fold change
- Kainic Acid Seizure (fold change) (brain; brain, u04835_at CREMdeltaC—G gene): 2.1 fold change
- Kainic Acid Seizure (fold change) (brain; brain, u05014_at Rattus norvegicus Sprague/Dawley PHAS-a): 3.9 fold change
- Kainic Acid Seizure (fold change) (brain; brain, u23407_at Rattus norvegicus cellular retinoic acid-binding protein II (CRABP II) RNA): 9.2 fold change
- Kainic Acid Seizure (fold change) (brain; brain, u33500_g_at retinol dehydrogenase type II RNA): NC
- Kainic Acid Seizure (fold change) (brain; brain, u78102_at krox20 RNA): NC
- Kainic Acid Seizure (fold change) (brain; brain, x54686cds_at pJunB gene): NC
- Kainic Acid Seizure (fold change) (brain; brain, x60351cds_s alpha B-crystallin): 2.4 fold change
- Kainic Acid Seizure (fold change) (brain; brain, x62951RNA_s R. norvegicus RNA (pBUS19) with repetitive): NC
- Kainic Acid Seizure (fold change) (brain; brain, x63434_at R. norvegicus RNA for urokinase-type plasminogen activator): NC
- Kainic Acid Seizure (fold change) (brain; brain, x63594cds_g_ RL/IF-1 RNA): NC
- Kainic Acid Seizure (fold change) (brain; brain, x71127_at complement protein C1q beta): 2.7 fold change
- Kainic Acid Seizure (fold change) (brain; brain, x71127_s_at complement protein C1q beta chain): 3.6 fold change
- Kainic Acid Seizure (fold change) (brain; brain, x74565cds_g_ TBFII RNA for polypyrimidine tract binding): 5.4 fold change
- Kainic Acid Seizure (fold change) (brain; brain, x95986RNA#1 CBR gene): NC
- Kainic Acid Seizure (fold change) (brain; brain, x98377_at RNA for emerin): NC
- Kainic Acid Seizure (fold change) (brain; brain, x99121RNA#1 RT6 gene, exon 2, testis): NC
- Kainic Acid Seizure (fold change) (brain; brain, z22812_at interleukin-1 receptor type 2): NC
- Neuronal injury (neurons): diffuse neuronal injury
